In patent US20220033397A1, “PHARMACEUTICAL COMPOUNDS AND THEIR USE AS INHIBITORS OF UBIQUITIN SPECIFIC PROTEASE 19 (USP19)” (ALMAC DISCOVERY LIMITED, priority 2018, published 2022) one finds IC50 data, which are given here for 22 molecules.

The target of the assay is T1, Full-length USP19 (Homo sapiens, UniProt O94966).
T1 construct: Full-length USP19 was purchased from Boston Biochem (E-576); purchased Boston Biochem E-576
T1 sequence (O94966 1-1318): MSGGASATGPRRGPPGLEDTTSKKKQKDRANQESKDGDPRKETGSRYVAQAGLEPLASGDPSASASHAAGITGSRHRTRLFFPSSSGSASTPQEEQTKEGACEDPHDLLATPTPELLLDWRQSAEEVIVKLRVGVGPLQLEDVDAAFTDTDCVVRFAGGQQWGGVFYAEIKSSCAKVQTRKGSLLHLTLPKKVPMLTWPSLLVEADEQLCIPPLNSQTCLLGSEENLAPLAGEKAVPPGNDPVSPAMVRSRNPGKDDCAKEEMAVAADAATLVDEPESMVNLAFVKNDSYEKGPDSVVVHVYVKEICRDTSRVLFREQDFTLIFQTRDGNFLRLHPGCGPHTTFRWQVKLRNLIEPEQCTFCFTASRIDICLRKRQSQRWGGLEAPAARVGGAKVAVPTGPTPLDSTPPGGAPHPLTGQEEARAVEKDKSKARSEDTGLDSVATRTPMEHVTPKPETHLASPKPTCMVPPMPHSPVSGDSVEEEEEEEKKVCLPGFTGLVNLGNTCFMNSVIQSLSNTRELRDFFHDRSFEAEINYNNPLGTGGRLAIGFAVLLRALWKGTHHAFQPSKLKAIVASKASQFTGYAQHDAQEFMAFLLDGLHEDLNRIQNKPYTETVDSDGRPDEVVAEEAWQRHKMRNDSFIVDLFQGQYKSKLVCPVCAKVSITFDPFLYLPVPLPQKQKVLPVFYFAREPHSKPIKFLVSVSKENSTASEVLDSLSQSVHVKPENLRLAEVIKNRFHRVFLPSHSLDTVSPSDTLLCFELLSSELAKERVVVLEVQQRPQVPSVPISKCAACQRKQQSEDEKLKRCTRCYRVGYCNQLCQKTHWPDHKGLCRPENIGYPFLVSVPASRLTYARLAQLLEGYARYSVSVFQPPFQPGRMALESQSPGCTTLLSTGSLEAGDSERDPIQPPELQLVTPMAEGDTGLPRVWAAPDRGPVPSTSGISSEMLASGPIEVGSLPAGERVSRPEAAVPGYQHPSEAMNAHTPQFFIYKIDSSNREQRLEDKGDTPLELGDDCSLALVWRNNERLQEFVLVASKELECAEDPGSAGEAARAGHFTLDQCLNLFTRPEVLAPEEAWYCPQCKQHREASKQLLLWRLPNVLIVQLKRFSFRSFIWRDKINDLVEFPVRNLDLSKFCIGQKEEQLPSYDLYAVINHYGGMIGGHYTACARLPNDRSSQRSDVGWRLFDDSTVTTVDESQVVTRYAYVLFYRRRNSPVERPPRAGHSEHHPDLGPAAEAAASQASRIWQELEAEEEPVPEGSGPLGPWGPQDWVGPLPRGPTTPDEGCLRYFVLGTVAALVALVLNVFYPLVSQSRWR
The experiment in a line: USP19 fluorescence polarisation (FP) homogeneous assay with Ubiquitin-Lys-TAMRA substrate. It counts as biochemical. The note with it: 2.5 nM USP19, 30 min pre-incubation, average of at least two duplicate experiments. Here is the method:
Unless otherwise stated, all other reagents were purchased from Sigma. Enzymatic reactions were conducted in black flat bottom polystyrene 384-well plates (Nunc) and 30 μL total volume. […] Inhibitors were stored as 10 mM DMSO stocks in an inert environment (low humidity, dark, low oxygen, room temperature) using the Storage Pod System and serial dilutions were prepared in buffer just prior to the assay (from 200 μM to 2 μM, 8-18 data point curve).
Following incubation at RT for 30 min, the enzymatic reactions were initiated by dispensing the Ub substrate (500 nM, 10 μL). FP was measured every 15 min over a period of 90 min (within the linear range of the assay) using a Synergy 4 plate reader (BioTek) exciting at 530 nm and measuring the amount of parallel and perpendicular light at 575 nm. The FP signal was subsequently normalised to the no compound control.
On to `C[C@H](CC1CCCCC1)C(=O)N1CCC(O)(Cn2cc(S(C)(=N)=O)c(Cl)cc2=O)C(C)(C)C1` (stereo partly drawn) [Example 67, 4-Chloro-1-((1-((R)-3-cyclohexyl-2-methylpropanoyl)-4-hydroxy-3,3-dimethylpiperidin-4-yl)methyl)-5-(S-methylsulfonimidoyl)pyridin-2(1H)-one], for which the IC50 was 0.5 to 5 µM. Take `Cn1ncc2c(=O)n(CC3(O)CCN(C(=O)N4CCNC[C@H]4c4ccccc4)CC34CCCC4)cnc21` (stereo partly drawn) [Example 182, 5-((10-Hydroxy-7-((R)-2-phenylpiperazine-1-carbonyl)-7-azaspiro[4.5]decan-10-yl)methyl)-1-methyl-1,5-dihydro-4H-pyrazolo[3,4-d]pyrimidin-4-one]: the IC50 was less than 0.5 µM. As to `N[C@@H]1CCN(C(=O)N2CC[C@@](O)(Cn3cnc(-c4ccccc4)cc3=O)C3(CCCC3)C2)[C@H](c2ccccc2)C1` [Example 397, 3-(((S)-7-((2S,4R)-4-Amino-2-phenyl-piperidine-1-carbo-nyl)-10-hydroxy-7-azaspiro[4.5]decan-10-yl)methyl)-6-phenylpyrimidin-4(3H)-one], the IC50 is less than 0.5 µM. With `Cn1cc(-c2cc(=O)n(CC3(O)CCN(C(=O)NCc4ccccc4)CC34CCCC4)cn2)cn1` (stereo not shown) [Example 204, N-Benzyl-10-hydroxy-10-((4-(1-methyl-1H-pyrazol-4-yl)-6-oxopyrimidin-1(6H)-yl)methyl)-7-azaspiro[4.5]decane-7-carboxamide], the IC50 lay in the range of 5 to 50 µM.

Consider `C[C@H](CC1CCCCC1)C(=O)N1CCC(O)(CN2Cc3ccccc3C2=O)C(C)(C)C1` (stereo partly drawn) [Example 27, 2-((1-((R)-3-Cyclohexyl-2-methylpropanoyl)-4-hydroxy-3,3-dimethylpiperidin-4-yl)methyl)isoindolin-1-one], for which the IC50 lay in the range of 5 to 50 µM.

As for `C[C@H](CC1CCCCC1)C(=O)N1CCC(O)(Cn2cc(Cl)ncc2=O)C2(CCCC2)C1` (stereo partly drawn) [Example 6, 5-Chloro-1-((7-((R)-3-cyclohexyl-2-methylpropanoyl)-10-hydroxy-7-azaspiro[4.5]decan-10-yl)methyl)pyrazin-2(1H)-one], the IC50 is less than 0.5 µM.

Regarding `C[C@H](CC1CCCCC1)C(=O)N1CCC(O)(Cn2cnc3cc(F)c(Cl)cc3c2=O)C2(CCCC2)C1` (stereo partly drawn) [Example 155, 6-Chloro-3-((7-((R)-3-cyclohexyl-2-methylpropanoyl)-10-hydroxy-7-azaspiro[4.5]decan-10-yl)methyl)-7-fluoroquinazolin-4(3H)-one], the IC50 was less than 0.5 µM. Turning to `C[C@@H]1CN(CC2(O)CCN(C(=O)[C@H](C)CC(F)(F)F)CC23CCCC3)C(=O)CO1` (stereo partly drawn) [Example 94, (6R)-4-((10-Hydroxy-7-((R)-4,4,4-trifluoro-2-methylbutanoyl)-7-azaspiro[4.5]decan-10-yl)methyl)-6-methylmorpholin-3-one], the IC50 lay in the range of 50 to 250 µM. With `CN(Cc1ccco1)C(=O)N1CCC(O)(Cn2cnc(-c3ccccc3)cc2=O)C2(CCCC2)C1` (stereo not shown) [Example 242, N-(Furan-2-ylmethyl)-10-hydroxy-N-methyl-10-((6-oxo-4-phenylpyrimidin-1(6H)-yl)methyl)-7-azaspiro[4.5]decane-7-carboxamide], the half-inhibitory concentration (IC50) is 50 to 250 µM.

With `CC1(C)CN(C(=O)CCC2CCCCC2)CCC1(O)CN1CC(Cc2ccccc2)CC1=O` (stereo not shown) [Example 45, 4-Benzyl-1-((1-(3-cyclohexylpropanoyl)-4-hydroxy-3,3-dimethylpiperidin-4-yl)methyl)pyrrolidin-2-one], the half-maximal inhibitory concentration (IC50) lay in the range of 50 to 250 µM. Regarding `COc1ccccc1-c1cc(=O)n(C[C@]2(O)CCN(C(=O)N3CCNC[C@H]3c3cc(F)ccc3F)CC23CCCC3)cn1` [Example 388, 3-(((S)-7-((R)-2-(2,5-Difluoro-phenyl)piperazine-1-carbonyl)-10-hydroxy-7-azaspiro [4.5]decan-10-yl)methyl)-6-(2-meth-oxyphenyl)pyrimi-din-4(3H)-one], the IC50 was less than 0.5 µM. `O=C(N1CC[C@@](O)(Cn2cnc(-c3ccccc3)cc2=O)C2(CCCC2)C1)N1CCNCC1c1ccsc1` (stereo partly drawn) [Example 337, 3-(((10S)-10-Hydroxy-7-(2-(thiophen-3-yl)piperazine-1-carbonyl)-7-azaspiro[4.5]decan-10-yl)methyl)-6-phenylpyrimidin-4(3H)-one]: the IC50 was less than 0.5 µM. In the case of `CSc1cn(CC2(O)CCN(C(=O)N3CCNC[C@H]3c3ccccc3)CC23CCCC3)c(=O)cc1-c1ccccc1` (stereo partly drawn) [Example 186, 1-((10-Hydroxy-7-((R)-2-phenylpiperazine-1-carbonyl)-7-azaspiro[4.5]decan-10-yl)methyl)-5-(methylthio)-4-phenylpyridin-2(1H)-one] it was less than 0.5 µM; in that of `CC1CCCN1C(=O)N1CCC(O)(Cn2cnc(-c3ccccc3)cc2=O)C2(CCCC2)C1` (stereo not shown) [Example 233, 3-((10-Hydroxy-7-(2-methylpyrrolidine-1-carbonyl)-7-azaspiro[4.5]decan-10-yl)methyl)-6-phenylpyrimidin-4(3H)-one], 5 to 50 µM. Take `Cc1nc2cnccc2c(=O)n1CC1(O)CCN(C(=O)[C@H](C)CC2CCCCC2)CC12CCCC2` (stereo partly drawn) [Example 153, 3-((7-((R)-3-Cyclohexyl-2-methylpropanoyl)-10-hydroxy-7-azaspiro[4.5]decan-10-yl)methyl)-2-methylpyrido[3,4-d]pyrimidin-4(3H)-one]: the IC50 is 0.5 to 5 µM. As for `CN(Cc1ccns1)C(=O)N1CCC(O)(Cn2cnc(-c3ccccc3)cc2=O)C2(CCCC2)C1` (stereo not shown) [Example 238, 10-Hydroxy-N-(isothiazol-5-ylmethyl)-N-methyl-10-((6-oxo-4-phenylpyrimidin-1(6H)-yl)methyl)-7-azaspiro[4.5]decane-7-carboxamide], the IC50 fell in the range of 5 to 50 µM. As to `O=C(N1CCC(O)(Cn2cnc(-c3ccccc3)cc2=O)C2(CCCC2)C1)N1CCCC1C1CC1` (stereo not shown) [Example 264, 3-((7-(2-Cyclopropylpyrrolidine-1-carbonyl)-10-hydroxy-7-azaspiro[4.5]decan-10-yl)methyl)-6-phenylpyrimidin-4(3H)-one], the IC50 lay within 0.5 to 5 µM. In the case of `O=C(NCC1(F)CCC1)N1CC[C@@](O)(Cn2cnc(-c3ccccc3)cc2=O)C2(CCCC2)C1` [Example 312, (S)—N-((1-Fluorocyclobutyl)methyl)-10-hydroxy-10-((6-oxo-4-phenylpyrimidin-1(6H)-yl)methyl)-7-azaspiro[4.5]decane-7-carboxamide] it was 5 to 50 µM.

In the case of `O=C(N1CC2CC2C1)N1CCC(O)(Cn2cnc(-c3ccccc3)cc2=O)C2(CCCC2)C1` (stereo not shown) [Example 209, 3-((7-(3-Azabicyclo[3.1.0]hexane-3-carbonyl)-10-hydroxy-7-azaspiro[4.5]decan-10-yl)methyl)-6-phenylpyrimidin-4(3H)-one], the IC50 lay within 50 to 250 µM. In the case of `O=C(N1CC[C@@](O)(Cn2cnc(-c3ccsc3)cc2=O)C2(CCCC2)C1)N1CCNC[C@H]1c1ccccc1` [Example 344, 3-(((S)-10-Hydroxy-7-((R)-2-phenylpiperazine-1-carbonyl)-7-azaspiro[4.5]decan-10-yl)methyl)-6-(thio-phen-3-yl)pyrimidin-4(3H)-one] it was less than 0.5 µM. For the molecule `O=C(N1CCC(O)(Cn2cc(F)c(-c3ccccc3)cc2=O)C2(CCCC2)C1)N1CCNC[C@H]1c1ccccc1` (stereo partly drawn) [Example 331, 5-Fluoro-1-((10-hydroxy-7-((R)-2-phenylpiperazine-1-carbonyl)-7-azaspiro[4.5]decan-10-yl)methyl)-4-phenylpyridin-2(1H)-one], the IC50 was less than 0.5 µM. Consider `O=C(N1CCC(O)(Cn2cnc(-c3ccccc3)cc2=O)C2(CCCC2)C1)N1CCCC1c1ccncc1` (stereo not shown) [Example 249, 3-((10-Hydroxy-7-(2-(pyridin-4-yl)pyrrolidine-1-carbonyl)-7-azaspiro[4.5]decan-10-yl)methyl)-6-phenylpyrimidin-4(3H)-one], for which the IC50 is 0.5 to 5 µM.
